Reference: paper PMC9636434, “Discovery of small molecule agonists of the Relaxin Family Peptide Receptor 2” (Communications Biology, 2022)
Where two headings read alike, the source gives them in different places.

Assay: Pharmacokinetic study, 3 mg/kg IV, 10 mg/kg PO and 10 mg/kg PO QD*3, plasma, liver and bone
Type: in vivo, mouse
Conditions: female, mouse
Protocol: The concentration of compound in plasma, liver, and long bones was detected using liquid chromatography tandem mass spectrometry (LC-MS/MS). Samples were collected after a single intraperitoneal (IP) administration at 30 mg/kg, a single intravenous (IV) administration at 3 mg/kg, a single oral (PO) administration at 10 mg/kg, and a daily PO administration for 3 consecutive days at 10 mg/kg. The compound was formulated in 75% PEG300 + 25% of 40% aq. HPBCD for IV and PO administration and in 60% Phosal + 40% PEG300 for IP administration. All tissue samples were homogenized in water at a tissue weight to water volume ratio 1:3.
IV administration, one 10 mg/kg PO administration and three 10 mg/kg PO administrations (QD*3). a Plasma, b liver and c bone profiles in female mice. The actual concentration (ng/g) is the detected value (ng/mL) multiplied by 4. Drug vehicle is 25% aq. 40% HP-b-CD - 75% PEG300. 3 mice were used per time point. Results are expressed as the mean ± SEM.

O=C1Nc2ccc(-c3cc(C(F)(F)F)cc(C(F)(F)F)c3)cc2C(=O)N2CCN(C(=O)COc3ccc(OC(F)(F)F)cc3I)C[C@@H]12 [compound 6641]
concentration at 48 h (C57BL/6J, bone (long bones), iv, 3 mg/kg, bone, IV, 48 h, individual animals, N/A: Below detection level, read-out: Bone 6641 IV concentration): 3.84 ng/g
concentration at 0.25 h (C57BL/6J, bone (long bones), po, 10 mg/kg, bone, PO (QD*3), 0.25 h, individual animals, read-out: Bone 6641 PO (QD*3) concentration): 19.5 ng/g
concentration at 0.5 h (C57BL/6J, bone (long bones), po, 10 mg/kg, bone, PO (QD*3), 0.5 h, individual animals, read-out: Bone 6641 PO (QD*3) concentration): 54.2 ng/g
concentration at 1 h (C57BL/6J, bone (long bones), po, 10 mg/kg, bone, PO (QD*3), 1 h, individual animals, read-out: Bone 6641 PO (QD*3) concentration): 168 ng/g
concentration at 3 h (C57BL/6J, bone (long bones), po, 10 mg/kg, bone, PO (QD*3), 3 h, individual animals, read-out: Bone 6641 PO (QD*3) concentration): 337 ng/g
concentration at 7 h (C57BL/6J, bone (long bones), po, 10 mg/kg, bone, PO (QD*3), 7 h, individual animals, read-out: Bone 6641 PO (QD*3) concentration): 141 ng/g
concentration at 24 h (C57BL/6J, bone (long bones), po, 10 mg/kg, bone, PO (QD*3), 24 h, individual animals, read-out: Bone 6641 PO (QD*3) concentration): 7.05 ng/g
concentration at 0.083 h (C57BL/6J, bone (long bones), po, 10 mg/kg, bone, PO, 0.083 h, individual animals, N/A: Below detection level, read-out: Bone 6641 PO concentration): 3.07 ng/g
concentration at 0.25 h (C57BL/6J, bone (long bones), po, 10 mg/kg, bone, PO, 0.25 h, individual animals, read-out: Bone 6641 PO concentration): 5.39 ng/g
concentration at 0.5 h (C57BL/6J, bone (long bones), po, 10 mg/kg, bone, PO, 0.5 h, individual animals, read-out: Bone 6641 PO concentration): 27.1 ng/g
concentration at 1 h (C57BL/6J, bone (long bones), po, 10 mg/kg, bone, PO, 1 h, individual animals, read-out: Bone 6641 PO concentration): 114 ng/g
concentration at 3 h (C57BL/6J, bone (long bones), po, 10 mg/kg, bone, PO, 3 h, individual animals, read-out: Bone 6641 PO concentration): 140 ng/g
concentration at 0.083 h (C57BL/6 J, liver, iv, 3 mg/kg, liver, IV, 0.083 h, individual animals, read-out: Liver 6641 IV concentration): 26000 ng/g
concentration at 0.25 h (C57BL/6 J, liver, iv, 3 mg/kg, liver, IV, 0.25 h, individual animals, read-out: Liver 6641 IV concentration): 17200 ng/g
concentration at 0.5 h (C57BL/6J, liver, iv, 3 mg/kg, liver, IV, 0.5 h, individual animals, read-out: Liver 6641 IV concentration): 8740 ng/g
concentration at 3 h (C57BL/6J, liver, iv, 3 mg/kg, liver, IV, 3 h, individual animals, read-out: Liver 6641 IV concentration): 1570 ng/g
concentration at 7 h (C57BL/6 J, liver, iv, 3 mg/kg, liver, IV, 7 h, individual animals, read-out: Liver 6641 IV concentration): 474 ng/g
concentration at 24 h (C57BL/6 J, liver, iv, 3 mg/kg, liver, IV, 24 h, individual animals, read-out: Liver 6641 IV concentration): 28 ng/g
concentration at 0.083 h (C57BL/6 J, liver, po, 10 mg/kg, liver, PO (QD*3), 0.083 h, individual animals, read-out: Liver 6641 PO (QD*3) concentration): 44.1 ng/g
concentration at 1 h (C57BL/6J, liver, po, 10 mg/kg, liver, PO (QD*3), 1 h, individual animals, read-out: Liver 6641 PO (QD*3) concentration): 3320 ng/g
concentration at 3 h (C57BL/6J, liver, po, 10 mg/kg, liver, PO (QD*3), 3 h, individual animals, read-out: Liver 6641 PO (QD*3) concentration): 1900 ng/g
concentration at 7 h (C57BL/6 J, liver, po, 10 mg/kg, liver, PO (QD*3), 7 h, individual animals, read-out: Liver 6641 PO (QD*3) concentration): 1010 ng/g
concentration at 24 h (C57BL/6 J, liver, po, 10 mg/kg, liver, PO (QD*3), 24 h, individual animals, read-out: Liver 6641 PO (QD*3) concentration): 32.3 ng/g
concentration at 0.083 h (C57BL/6 J, liver, po, 10 mg/kg, liver, PO, 0.083 h, individual animals, N/A: Below detection level, read-out: Liver 6641 PO concentration): 5.14 ng/g
concentration at 0.25 h (C57BL/6 J, liver, po, 10 mg/kg, liver, PO, 0.25 h, individual animals, read-out: Liver 6641 PO concentration): 321 ng/g
concentration at 1 h (C57BL/6J, liver, po, 10 mg/kg, liver, PO, 1 h, individual animals, read-out: Liver 6641 PO concentration): 3040 ng/g
concentration at 3 h (C57BL/6J, liver, po, 10 mg/kg, liver, PO, 3 h, individual animals, read-out: Liver 6641 PO concentration): 1940 ng/g
concentration at 7 h (C57BL/6 J, liver, po, 10 mg/kg, liver, PO, 7 h, individual animals, read-out: Liver 6641 PO concentration): 1210 ng/g
concentration at 24 h (C57BL/6 J, liver, po, 10 mg/kg, liver, PO, 24 h, individual animals, read-out: Liver 6641 PO concentration): 28.5 ng/g
concentration at 48 h (C57BL/6 J, liver, po, 10 mg/kg, liver, PO, 48 h, individual animals, read-out: Liver 6641 PO concentration): 2.88 ng/g
concentration at 0.083 h (C57BL/6 J, plasma, iv, 3 mg/kg, IV, Time 0.083 h, individual values (1)-(3), read-out: Plasma concentration): 2030 ng/mL
concentration at 0.25 h (C57BL/6 J, plasma, iv, 3 mg/kg, IV, Time 0.25 h, individual values (1)-(3), read-out: Plasma concentration): 1260 ng/mL
concentration at 0.5 h (C57BL/6 J, plasma, iv, 3 mg/kg, IV, Time 0.5 h, individual values (1)-(3), read-out: Plasma concentration): 721 ng/mL
concentration at 1 h (C57BL/6 J, plasma, iv, 3 mg/kg, IV, Time 1 h, individual values (1)-(3), read-out: Plasma concentration): 343 ng/mL
concentration at 3 h (C57BL/6 J, plasma, iv, 3 mg/kg, IV, Time 3 h, individual values (1)-(3), read-out: Plasma concentration): 220 ng/mL
concentration at 7 h (C57BL/6 J, plasma, iv, 3 mg/kg, IV, Time 7 h, individual values (1)-(3), read-out: Plasma concentration): 67.6 ng/mL
concentration at 24 h (C57BL/6 J, plasma, iv, 3 mg/kg, IV, Time 24 h, individual values (1)-(3), read-out: Plasma concentration): 4.37 ng/mL
concentration at 48 h (C57BL/6 J, plasma, iv, 3 mg/kg, IV, Time 48 h, individual values (1)-(3), N/A: Below detection level, read-out: Plasma concentration): 0.874 ng/mL
concentration at 0.083 h (C57BL/6 J, plasma, po, 10 mg/kg, PO (QD*3), Time 0.083 h, individual values (1)-(3), read-out: Plasma concentration): 8.04 ng/mL
concentration at 0.25 h (C57BL/6 J, plasma, po, 10 mg/kg, PO (QD*3), Time 0.25 h, individual values (1)-(3), read-out: Plasma concentration): 95.9 ng/mL
concentration at 1 h (C57BL/6 J, plasma, po, 10 mg/kg, PO (QD*3), Time 1 h, individual values (1)-(3), read-out: Plasma concentration): 336 ng/mL
concentration at 3 h (C57BL/6 J, plasma, po, 10 mg/kg, PO (QD*3), Time 3 h, individual values (1)-(3), read-out: Plasma concentration): 264 ng/mL
concentration at 7 h (C57BL/6 J, plasma, po, 10 mg/kg, PO (QD*3), Time 7 h, individual values (1)-(3), read-out: Plasma concentration): 144 ng/mL
concentration at 24 h (C57BL/6 J, plasma, po, 10 mg/kg, PO (QD*3), Time 24 h, individual values (1)-(3), read-out: Plasma concentration): 5.56 ng/mL
concentration at 48 h (C57BL/6 J, plasma, po, 10 mg/kg, PO (QD*3), Time 48 h, individual values (1)-(3), N/A: Below detection level, read-out: Plasma concentration): 1.04 ng/mL
concentration at 0.083 h (C57BL/6 J, plasma, po, 10 mg/kg, PO, Time 0.083 h, individual values (1)-(3), N/A: Below detection level, read-out: Plasma concentration): 1.64 ng/mL
concentration at 0.25 h (C57BL/6 J, plasma, po, 10 mg/kg, PO, Time 0.25 h, individual values (1)-(3), read-out: Plasma concentration): 43.8 ng/mL
concentration at 1 h (C57BL/6 J, plasma, po, 10 mg/kg, PO, Time 1 h, individual values (1)-(3), read-out: Plasma concentration): 369 ng/mL
concentration at 3 h (C57BL/6 J, plasma, po, 10 mg/kg, PO, Time 3 h, individual values (1)-(3), read-out: Plasma concentration): 219 ng/mL
concentration at 7 h (C57BL/6 J, plasma, po, 10 mg/kg, PO, Time 7 h, individual values (1)-(3), read-out: Plasma concentration): 134 ng/mL
concentration at 24 h (C57BL/6 J, plasma, po, 10 mg/kg, PO, Time 24 h, individual values (1)-(3), read-out: Plasma concentration): 4.25 ng/mL
concentration at 48 h (C57BL/6 J, plasma, po, 10 mg/kg, PO, Time 48 h, individual values (1)-(3), N/A: Below detection level, read-out: Plasma concentration): 1.39 ng/mL
